{"source": "patent US5565437A", "about": "“2',3'-dideoxy-2'-fluoro-purine nucleosides and methods for using same” (priority 1992, dated 1996)", "key": {"[1]": {"test": "Acid-catalyzed decomposition / stability in acid, 37° C., HPLC", "format": "physicochemical", "description": "In order to study acid-catalyzed decomposition of the subject compounds, a pH 1 buffer was prepared by dissolving 0.746 g KCl and 26.8 g 1.0N HCl in sufficient distilled water to give 200 ml total volume. Ten ml of buffer, prewarmed to 37° C., was added to 102 micrograms of ddA (Compound I), and 93 micrograms of each compounds II or III, 2',3'-dideoxy-2'-alpha-flourodeminine or 2'-beta-flouro-2',3'-dideoxyadenosine. The samples were shaken and maintained at 37° C. Aliquots were taken at timed intervals and neutralized immediately with 0.1 NaOH and chilled on ice. The amounts of ddA and the fluorinated analogs were determined by HPLC analysis using a 4.6×250 mm […] Ultrasphere ODS column protected by a guard column packed with 37-50 micron Vydac 201SC. Elution was with 12% acetonitrile in 0.01 M pH 6.8 phosphate buffer at 1.0 ml/minute. The integrator peak areas were plotted as a function of time, and the data was fitted to a first order decomposition curve by a computer program (MLAB)."}, "[2]": {"system": "human immunodeficiency virus (HIV; HTLV-IIIB virus) in ATH8 cells", "test": "HIV cytopathic assay using ATH8 cells (protection against the cytopathic effect of HIV)", "format": "cell-based", "description": "To test the cytopathic effect of the compounds of the present invention, HIV cytopathic assay was performed using ATH8 cells as described by Mitsuya et al., Proc. Nat. Acad. Sci. USA, 83, 1911 (1986). In brief, 2×10^5 ATH8 cells were preexposed to polybrene, exposed to HTLV-IIIB virus (2000 virus particles/cell) for 45 minutes after treatment with polybrene, resuspended in 1 ml of culture medium containing Interleukin 2 in the presence or absence of various concentrations of compounds, and incubated in culture tubes at 37° C. in 5% CO2 /95% air humidified atmosphere. Control cells were treated similarly but were not exposed to the virus. At various times on days 5 to 7 of culture, the total viable cells were counted in a hemocytometer by the trypan blue dye exclusion method. In the HIV cytopathic effect assay using ATH8 cells, 0.5 to 5 virus particles per cell represent the minimum cytopathic dose of the virus."}, "adenosine deaminase": {"system": "adenosine deaminase", "test": "Metabolism by adenosine deaminase in the body", "format": "in vitro ADME"}, "HIV": {"system": "HIV", "conditions": "background statement; cited from earlier work"}, "[3]": {"conditions": "relative to adenosine; cited from earlier work"}, "[4]": {"system": "human immunodeficiency virus (HIV)", "conditions": "background statement; cited from earlier work"}}}
{"compound": "Nc1ncnc2c1ncn2[C@@H]1O[C@H](CO)C[C@@H]1F", "note": "[Compound III, 2',3'-dideoxy-2'-beta-fluoroadenosine]", "values": [{"measurement": "change after exposure to acidic conditions", "setting": "[1]; 24 hour exposure, pH 1 (FIG. 3)", "value": "completely unchanged"}, {"measurement": "durability of the antiviral effect, compared with the parent compound I", "setting": "[2]; compared with compound I (ddA)", "value": "as durable as that of the parent compound"}, {"measurement": "activity and potency in protecting ATH8 cells against the cytopathic effect of HIV, compared with ddA", "setting": "[2]; substantial viral excess, FIG. 1", "value": "approximately as active and potent as ddA"}, {"measurement": "metabolism by adenosine deaminase", "setting": "adenosine deaminase", "value": "metabolism of 2',3'-dideoxy-2'-beta-fluoroadenosine to compound IV"}]}
{"compound": "Cc1ccc(C(=O)Nc2ccc(S(=O)(=O)O)c3cc(S(=O)(=O)O)cc(S(=O)(=O)O)c23)cc1NC(=O)c1cccc(NC(=O)Nc2cccc(C(=O)Nc3cc(C(=O)Nc4ccc(S(=O)(=O)O)c5cc(S(=O)(=O)O)cc(S(=O)(=O)O)c45)ccc3C)c2)c1", "note": "[suramin]", "values": [{"measurement": "HIV replication in the presence of compound", "setting": "HIV", "value": "considerably slower"}]}
{"compound": "Nc1ncnc2c1ncn2[C@@H]1O[C@H](CO)C[C@H]1F", "note": "[Compound II, 2',3'-dideoxy-2'-alpha-flouroadenosine]", "values": [{"measurement": "stability to acid-catalyzed decomposition", "setting": "[1]; pH 2, 37° C. (FIG. 2)", "value": "stable to acid-catalyzed decomposition"}]}
{"compound": "antimoniotungstate", "values": [{"measurement": "HIV replication in the presence of compound", "setting": "HIV", "value": "considerably slower"}]}
{"compound": "Nc1ncnc2c1ncn2[C@H]1CC[C@@H](CO)O1", "note": "[Compound I, 2',3'dideoxyadenosine]", "values": [{"measurement": "rate of acid-catalyzed hydrolysis of the glycosidic bond, times faster than adenosine", "setting": "[3]", "value": "40,000 times"}, {"measurement": "in vitro activity against HIV", "setting": "[4]", "value": "potent in vitro activity"}, {"measurement": "half-life", "setting": "[1]; ph 1 kcl/hcl buffer, pH 1.0, 37° C. (FIG. 3)", "value": 35, "unit": "s"}]}
